Data from PubChem BioAssay (NCI).
Where “and” joins values, the source holds several entries; their conditions need not be identical. Identical values can stand only once.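 Cultured in 96-well plates, cells were exposed to test compound for 48 hours across five concentrations. GI50 marks 50% less growth. Definition used: TGI = concentration required for complete inhibition of growth.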

How the values were obtained:
Assay in all cases: growth of human tumour cells (NCI), 48 h
T-47D breast = test system: T-47D breast
NCI-H460 lung = test system: NCI-H460 lung
HCC-2998 colon = test system: HCC-2998 colon
A549 NSCLC = test system: A549 NSCLC
NCI/ADR-RES ovarian = test system: NCI/ADR-RES ovarian
786-0 renal = test system: 786-0 renal
KM12 colon = test system: KM12 colon
SF-295 CNS = test system: SF-295 CNS
SK-MEL-5 melanoma = test system: SK-MEL-5 melanoma
SW-620 colon = test system: SW-620 colon

Structure (SMILES)	GI50 (T-47D breast)	TGI (T-47D breast) [µM]	GI50 (NCI-H460 lung)	TGI (NCI-H460 lung)	GI50 (HCC-2998 colon)	TGI (HCC-2998 colon)	GI50 (A549 NSCLC)	TGI (A549 NSCLC)	GI50 (NCI/ADR-RES ovarian)	TGI (NCI/ADR-RES ovarian) [µM]	GI50 (786-0 renal)	TGI (786-0 renal)	GI50 (KM12 colon)	TGI (KM12 colon)	GI50 (SF-295 CNS)	TGI (SF-295 CNS) [µM]	GI50 (SK-MEL-5 melanoma)	TGI (SK-MEL-5 melanoma)	GI50 (SW-620 colon)	TGI (SW-620 colon)
CC(C)c1c(C(=O)Nc2ccccc2)c(-c2ccccc2)c(-c2ccc(F)cc2)n1CC[C@@H](O)C[C@@H](O)CC(=O)O	32.1 µM	> 100	41.3 µM	> 100 µM	27.4 µM	> 71.5 µM	56.5 µM	> 100 µM	40.8 µM	> 100	22.3 µM	> 81.2 µM	40.2 µM	> 100 µM	6.74 µM	> 60.6	9.95 µM	25.4 µM	22.2 µM	> 100 µM
O=C1Nc2ccc(I)cc2/C1=C/c1cc(Br)c(O)c(Br)c1	> 18.5 µM and 15.4 µM	> 82.8	> 17.4 µM and 17 µM	> 25 µM and 44.1 µM	24.5 µM and 16.3 µM	> 25 µM and 33.6 µM	> 24.2 µM and 22.7 µM	> 25 µM and 97 µM	> 21.8 µM and 28.2 µM	> 100	> 24.1 µM and 18.2 µM	> 25 µM and 45.5 µM	> 15.9 µM and 12 µM	> 25 µM and 28.7 µM	> 15.9 µM and 17.2 µM	> 100	13 µM and 10.5 µM	> 25 µM and 23.6 µM	24.8 µM and 22 µM	> 25 µM and 51.1 µM
COc1cccc(-c2cc(-c3ccc(Nc4nc(Nc5ccc(Cl)cc5)nc(Nc5ccc(Cl)cc5)n4)cc3)nc(N)c2C#N)c1	1.34 µM	3.67	3.74 µM	24.4 µM	2.11 µM	5.54 µM	9.41 µM	> 100 µM	14.7 µM	> 100	1.77 µM	3.43 µM	2.35 µM	11.1 µM	2.78 µM	10.2	2.03 µM	6.35 µM	2.41 µM	5.64 µM
N=C(N)c1ccc(-c2ccc(-c3cccs3)s2)cc1F	1.49 µM	3.48	0.0436 µM	1.05 µM	1.29 µM	2.93 µM	0.0305 µM	1.27 µM	2 µM	4.3	1.14 µM	2.63 µM	1.01 µM	2.38 µM	0.39 µM	1.78	1.27 µM	2.69 µM	0.506 µM	1.94 µM
FC(F)(F)c1ccc(-c2cnc(-c3nn[nH]n3)nc2NC2CCCCCC2)cc1	> 10 µM	> 10	> 10 µM	> 10 µM	> 10 µM	> 10 µM	> 10 µM	> 10 µM	> 10 µM	> 10	> 10 µM	> 10 µM	> 10 µM	> 10 µM	> 10 µM	> 10	> 10 µM	> 10 µM	> 10 µM	> 10 µM
Cc1ccc(CNc2ccc(Cl)cc2NCc2ccc(C)c(O)c2)cc1O	7.4 µM	20.1	8 µM	15.9 µM	8.96 µM	16.6 µM	8.13 µM	15.3 µM	8.3 µM	17.8	8.27 µM	15.4 µM	6.52 µM	13.8 µM	8.24 µM	15.2			8.22 µM	16.8 µM
C/C=C/C(C/C=C(\C)CO[Si](C)(C)C(C)(C)C)O[Si](C)(C)C(C)(C)C (stereo not drawn)		> 100		> 100 µM		> 100 µM		> 100 µM		> 100		> 100 µM		> 100 µM		> 100		> 100 µM		> 100 µM
Cc1cc(C)c(CNC(=O)c2cc(Cl)c3c(c2C)O[C@@](C)(C2CCC(N(C)C)CC2)O3)c(=O)[nH]1 (stereo partly drawn)	> 100 µM	> 100	> 100 µM	> 100 µM	> 100 µM	> 100 µM	71.6 µM	> 100 µM	> 100 µM	> 100	33.1 µM	> 100 µM	> 100 µM	> 100 µM	> 100 µM	> 100	21.3 µM	63.2 µM	> 100 µM	> 100 µM
Nc1nc(N)c2nc(CNc3ccc(C(=O)NC(CCC(=O)O)C(=O)O)cc3)cnc2n1 (stereo not drawn)	0.316 µM and 1.37 µM	> 100	< 0.01 µM	> 100 µM	0.0329 µM and < 0.01 µM	> 100 µM	0.032 µM and < 0.01 µM	> 100 µM	< 0.01 µM	> 100	< 0.01 µM	> 100 µM	< 0.01 µM	> 100 µM	0.0327 µM and < 0.0134 µM	> 100	0.0585 µM and 0.0309 µM	> 100 µM	< 0.01 µM	> 100 µM
CC(C)OC(=O)OCOP(=O)(OCOC(=O)OC(C)C)C1CCCN(O)C1=O (stereo not drawn)	1.98 µM	> 100	1.14 µM	> 100 µM	2.07 µM	44.7 µM	4.01 µM	> 100 µM	2.6 µM	> 100	0.407 µM	> 100 µM	0.879 µM	> 100 µM	7.14 µM	> 100	1.3 µM	7.3 µM	1.37 µM	> 100 µM
CCN(CC)CCN1C(=O)c2cccc3cc(N)cc(c23)C1=O		> 100		18.2 µM		21.7 µM		> 100 µM		58.8		> 100 µM		66.9 µM		32.5		26.6 µM		83.3 µM
CN(C)CCCn1c2c(c3ccc(N4CCNCC4)cc3c1=O)C(=O)c1ccccc1-2	1.55 µM	4.42	0.307 µM	1.56 µM	0.352 µM	1.71 µM	0.224 µM	2.23 µM	1.16 µM	2.83	1.34 µM	2.73 µM	1.13 µM	3.07 µM	1.16 µM	3.36	0.698 µM	2.2 µM	0.164 µM	1.61 µM
CCCN1CCCC(c2ccc(Nc3nc(Nc4cc(F)ccc4C(N)=O)c4cc[nH]c4n3)c(OC)c2)C1 (stereo not drawn)	3.55 µM	7.62	0.116 µM	2.99 µM	2.58 µM	5.64 µM	0.129 µM	4.16 µM	3.57 µM	9.92	2.84 µM	6.29 µM	2.72 µM	5.86 µM	3.42 µM	7.16	3.03 µM	6.24 µM	0.106 µM	3.66 µM
